From patent US20220241416A1, “METHODS FOR THE IDENTIFICATION OF SARM1 NADASE ACTIVITY INHIBITORS AND USES THEREOF” (Bar Ilan University, priority 2021, published 2022)
pKi: −log10 of the molar value. “Also recorded” adds a separate entry of the source. Where two headings read alike, the source gives them in different places.

Experiments:
[1] = molecular target: T1, hSARM1 (Homo sapiens, UniProt Q6SZW1); assay: HPLC analysis of time dependent NAD+ consumption by hSARM1; type: biochemical; details: 2 mM NAD+ versus 50 μM; porcine brain NADase control not inhibited
T1 construct: hSARM1w.t; (26ERL . . . GPT724) that was not mutated in E642, was also expressed and isolated; 6xHis (N); TEV cleavage site (N); made in house; host or cells: HEK293F suspension cells
T1 sequence (Q6SZW1 with tags, fused parts or gaps): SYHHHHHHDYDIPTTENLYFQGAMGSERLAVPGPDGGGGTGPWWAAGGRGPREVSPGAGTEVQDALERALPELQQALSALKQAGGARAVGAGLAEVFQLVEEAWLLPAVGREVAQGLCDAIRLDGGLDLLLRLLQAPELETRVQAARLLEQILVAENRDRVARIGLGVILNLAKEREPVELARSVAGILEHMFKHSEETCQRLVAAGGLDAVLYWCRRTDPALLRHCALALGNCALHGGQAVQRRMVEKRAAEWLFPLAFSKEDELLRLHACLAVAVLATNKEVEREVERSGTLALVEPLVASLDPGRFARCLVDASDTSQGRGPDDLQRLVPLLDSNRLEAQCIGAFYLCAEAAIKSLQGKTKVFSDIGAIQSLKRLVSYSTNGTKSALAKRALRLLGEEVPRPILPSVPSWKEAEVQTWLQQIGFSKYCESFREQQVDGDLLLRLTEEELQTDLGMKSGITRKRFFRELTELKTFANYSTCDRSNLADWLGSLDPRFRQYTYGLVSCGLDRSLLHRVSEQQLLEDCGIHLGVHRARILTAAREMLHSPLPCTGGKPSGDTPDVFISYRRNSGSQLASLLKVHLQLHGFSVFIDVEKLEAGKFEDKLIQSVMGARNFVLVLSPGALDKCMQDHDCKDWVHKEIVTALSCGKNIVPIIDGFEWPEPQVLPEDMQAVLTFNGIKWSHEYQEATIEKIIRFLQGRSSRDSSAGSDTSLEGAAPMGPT
Method: Purified hSARM1w.t. was first diluted to 800 nM in 25 mM HEPES pH 7.5, 150 mM NaCl, and then mixed in 37° C. with different concentrations of NAD+(in the same buffer) in a 1:1 v/v ratio and incubated for 0, 5 and 30 min. 1:100 (v/v). BSA (NEB Inc. 20 mg/ml) was included, and reactions were stopped by heating at 95° C. for 2 minutes. Where specified, NMN (Sigma-Aldrich-N3501) was added in different concentrations. For control, NAD+ consumption was compared to a commercially available porcine brain NADase 0.025 units/ml (Sigma-Aldrich-N9879).
HPLC measurements were performed using a Merck Hitachi Elite LaChrom HPLC system equipped with an autosampler, UV detector and quaternary pump. HPLC traces were monitored at 260 nm and integrated using EZChrom Elite software. 10 μL of each sample were injected onto a Waters Spherisorb ODS1 C18 RP HPLC Column (5 μm particle size, 4.6 mm×150 mm ID). HPLC solvents are: A: 100% methanol; B: 120 mM sodium phosphate pH 6.0; C double-distilled water (DDW). The column was pre-equilibrated with B:C mixture ratio of 80:20. Chromatography was performed at room temperature with a flow rate of 1.5 ml/min. Each analysis cycle was 12 min long as follows (A:B:C, v/v): fixed 0:80:20 0-4 min; gradient to 20:80:0 4-6 min; fixed 20:80:0 from 6-9 min. gradient to 0:80:20 from 9-10 min; fixed 0:80:20 from 10-12 min. The NAD+ hydrolysis product ADPR was eluted at the isocratic stage of the chromatography while NAD+ elutes in the methanol gradient stage.

[2] = molecular target: T2, zfSARM1 (Danio rerio, UniProt F1QWA8); assay: Kinetic parameters of zfSARM1, substrate inhibition fit; type: biochemical, Zebrafish
T2 sequence (F1QWA8 1-713): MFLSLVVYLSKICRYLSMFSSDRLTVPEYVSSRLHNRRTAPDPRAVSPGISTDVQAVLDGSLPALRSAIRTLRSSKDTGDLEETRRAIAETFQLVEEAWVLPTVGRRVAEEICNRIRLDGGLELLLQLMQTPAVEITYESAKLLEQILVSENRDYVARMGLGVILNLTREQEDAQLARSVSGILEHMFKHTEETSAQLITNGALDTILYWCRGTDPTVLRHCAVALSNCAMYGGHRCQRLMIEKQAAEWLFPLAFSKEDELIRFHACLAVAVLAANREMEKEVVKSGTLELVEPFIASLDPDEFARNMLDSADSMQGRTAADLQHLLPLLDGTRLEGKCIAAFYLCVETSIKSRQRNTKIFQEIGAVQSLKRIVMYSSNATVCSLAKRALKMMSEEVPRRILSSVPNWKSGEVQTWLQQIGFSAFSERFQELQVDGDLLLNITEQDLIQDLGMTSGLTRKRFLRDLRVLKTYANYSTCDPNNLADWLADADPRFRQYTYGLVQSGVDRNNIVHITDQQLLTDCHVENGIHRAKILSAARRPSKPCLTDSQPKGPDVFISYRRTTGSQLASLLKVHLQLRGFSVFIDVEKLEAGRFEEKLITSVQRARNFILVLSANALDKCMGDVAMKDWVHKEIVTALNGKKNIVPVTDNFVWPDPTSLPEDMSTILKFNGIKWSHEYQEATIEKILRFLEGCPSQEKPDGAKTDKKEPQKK
Method: FIG. 14C. […] The kinetic parameters were determined from plots of reaction velocity of NAD+ consumption versus substrate (NAD+) concentration and then fitted to the Michaelis-Menten equation (Km and Vmax) or substrate inhibition equation (Ki) using non-linear curve fit in GraphPad Prism. Kcat was calculated by dividing the Vmax with protein molar concentration.
For Vmax and Km determination, the NADase activity assay was performed with several different NAD+ substrate concentrations and sampled in constant time points. For each NAD+ concentration, linear increase zone was taken for slope (V0) calculation. All data were than fitted to the Michaelis-Menten equation using non-linear curve fit in GraphPad Prism software. Kcat was calculated by dividing the Vmax with protein molar concentration.

## NC(=O)c1ccc[n+]([C@@H]2O[C@H](COP(=O)([O-])OP(=O)(O)OC[C@H]3O[C@@H](n4cnc5c(N)ncnc54)[C@H](O)[C@@H]3O)[C@@H](O)[C@H]2O)c1 [NAD+, Nicotinamide adenine dinucleotide]
[1]
  substrate inhibition of hSARM1 NAD+ hydrolysis: clearly inhibited; also recorded: tightly inhibited
[2]; apparent inhibition by substrate, read-out: Ki for NAD+, zfSARM1
  pKi: 2.87
[2]; substrate inhibition equation, read-out: Ki, inhibition by the substrate NAD+, zfSARM1
  pKi: 2.89
